Data reported in patent publication US20090075937A1, “LHRH ANTAGONISTS FOR THE TREATMENT OF LOWER URINARY TRACT SYMPTOMS” (AETERNA ZENTARIS GmbH, priority 2007, published 2009).

Legend:
[1] = system: study subjects; assay: Peroral treatment of study subjects with tetrahydrocarbazole compounds: chemical (hormonal) castration (Examples 4-9); format: in vivo, human; settings: 50 to 150 mg perorally daily as a single dose, schemes of 6 weeks to 6 months
Protocol: In the course of the present invention, the terms “hormone” and “hormonal” within for instance the terms “hormone castration”, “chemical (hormonal) castration” or “hormone withdrawal symptoms” refer to follicle stimulating hormone (FSH), luteinizing hormone (LH) and/or testosterone. Preferably, chemical (hormonal) castration is a testosterone castration and refers to a testosterone blood level of equal or below 1.2 ng/mL, preferably 0.5 ng/mL.
Study subjects are treated with compound (76) with the following doses according to the following administration schemes: • in a 3 month trial, 75 mg or 150 mg compound (76) administered perorally daily as a single dose on day 2-7 of the menstrual cycle • in a 3 months trial, 75 mg, 100 mg or 150 mg compound (76) administered perorally daily as a single dose on day 2-7 of the menstrual cycle followed by a 3 months treatment-free period • in a 6 months trial, 75 mg or 150 mg compound (76) administered perorally daily as a single dose • 50 mg or 150 mg per compound (76) administered daily as a single dose over 42 days (6 weeks)
Study subjects are treated with compound (68) with the following doses according to the following administration schemes: • in a 3 month trial, 75 mg or 150 mg compound (68) administered perorally daily as a single dose on day 2-7 of the menstrual cycle • in a 3 months trial, 75 mg, 100 mg or 150 mg compound (68) administered perorally daily as a single dose on day 2-7 of the menstrual cycle followed by a 3 months treatment-free period • in a 6 months trial, 75 mg or 150 mg compound (68) administered perorally daily as a single dose • 50 mg or 150 mg per compound (68) administered daily as a single dose over 42 days (6 weeks)
Study subjects are treated with compound 36 with the following doses according to the following administration schemes: • in a 3 month trial, 75 mg or 150 mg compound 36 administered perorally daily as a single dose on day 2-7 of the menstrual cycle • in a 3 months trial, 75 mg, 100 mg or 150 mg compound 36 administered perorally daily as a single dose on day 2-7 of the menstrual cycle followed by a 3 months treatment-free period • in a 6 months trial, 75 mg or 150 mg compound 36 administered perorally daily as a single dose • 50 mg or 150 mg per compound 36 administered daily as a single dose over 42 days (6 weeks)
Study subjects are treated with compound 37 with the following doses according to the following administration schemes: • in a 3 month trial, 75 mg or 150 mg compound 37 administered perorally daily as a single dose on day 2-7 of the menstrual cycle • in a 3 months trial, 75 mg, 100 mg or 150 mg compound 37 administered perorally daily as a single dose on day 2-7 of the menstrual cycle followed by a 3 months treatment-free period • in a 6 months trial, 75 mg or 150 mg compound 37 administered perorally daily as a single dose • 50 mg or 150 mg per compound 37 administered daily as a single dose over 42 days (6 weeks)
Study subjects are treated with compound 52 with the following doses according to the following administration schemes: • in a 3 month trial, 75 mg or 150 mg compound 52 administered perorally daily as a single dose on day 2-7 of the menstrual cycle • in a 3 months trial, 75 mg, 100 mg or 150 mg compound 52 administered perorally daily as a single dose on day 2-7 of the menstrual cycle followed by a 3 months treatment-free period • in a 6 months trial, 75 mg or 150 mg compound 52 administered perorally daily as a single dose • 50 mg or 150 mg per compound 52 administered daily as a single dose over 42 days (6 weeks)

[2] = system: study subjects; assay: Peroral treatment of study subjects with tetrahydrocarbazole compounds: nocturia frequency, urgency to urinate, frequency of emptying (Examples 4-9); format: in vivo, human; settings: 50 to 150 mg perorally daily as a single dose, schemes of 6 weeks to 6 months

chemical (hormonal) castration [1] | Structure (SMILES) | nocturia frequency, urgency to urinate and/or frequency of emptying compared to placebo [2]
successfully prevented | CCC(C)[C@H](NC(=O)Cc1ccccc1F)C(=O)N[C@]1(C(=O)N[C@H](C(=S)NCC2CCOCC2)C(C)CC)CCc2[nH]c3c(C(F)(F)F)cccc3c2C1 (stereo partly drawn) [Compound 52, (R)-3-{(S)-2-[2-(2-Fluoro-phenyl)-acetylamino]-3-methyl-pentanoylamino}-8-trifluoromethyl-2,3,4,9-tetrahydro-1H-carbazole-3-carboxylic acid {(S)-2-methyl-1-[K(tetrahydro-pyran-4-ylmethyl)-thiocarbamoyl]-butyl}-amide] | decrease
successfully prevented | CCC(C)[C@H](NC(=O)Cc1ccccc1F)C(=O)N[C@]1(C(=O)N[C@H](C(N)=S)C(C)CC)CCc2[nH]c3c(Cl)cc(F)cc3c2C1 (stereo partly drawn) [compound (68), (R)-8-chloro-6-fluoro-3-{(S)-2-[2-(2-fluorophenyl)acetylamino]-3-methyl-pentanoylamino}-2,3,4,9-tetrahydro-1H-carbazole-3-carboxylic acid ((S)-2-methyl-1-thiocarbamoylbutyl)amide] | decrease
